Measurements taken from patent publication US10689673B2, “Bioconversion process for producing nylon-7, nylon-7,7 and polyesters” (INVISTA NORTH AMERICA S.A.R.L., priority 2011, dated 2020).

Columns and labels:
[1] = tested on: Aspergillus oryzae methylaspartate ammonia lyase (MAL); details: 10 mM substrate, 5 or 20 g/L whole cell equivalent, 30° C., 1, 5 and 18 hours
[2] = target: T1, Citrobacter amalonaticus methylaspartate ammonia lyase (MAL) (Citrobacter amalonaticus, UniProt O66145); experiment: Biotransformation of beta-methyl aspartate with I4 lyase strain cell extract; format: biochemical; details: 10 mM substrate, 5 or 20 g/L whole cell equivalent, 30° C., after 1 hour
T1 construct: made in house; host or cells: E. coli BL21 (DE3), pET21-a, cell-free extract

[3] = target: T2, Clostridium tetanomorphum methylaspartate ammonia lyase (MAL) (Clostridium tetanomorphum, UniProt Q05514); experiment: Biotransformation of beta-methyl aspartate with I5 lyase strain cell extract; format: biochemical; details: 10 mM substrate, 5 or 20 g/L whole cell equivalent, 30° C., after 1 hour
T2 construct: made in house; host or cells: E. coli BL21 (DE3), pET21-a, cell-free extract

ACOT5 (formerly PTE-1c) = target: T3, ACOT5 (formerly PTE-1c) (Mus musculus, UniProt Q6Q2Z6); details: cited from earlier work
T3 construct: His tag; host or cells: E. coli
T3 sequence (Q6Q2Z6 1-421): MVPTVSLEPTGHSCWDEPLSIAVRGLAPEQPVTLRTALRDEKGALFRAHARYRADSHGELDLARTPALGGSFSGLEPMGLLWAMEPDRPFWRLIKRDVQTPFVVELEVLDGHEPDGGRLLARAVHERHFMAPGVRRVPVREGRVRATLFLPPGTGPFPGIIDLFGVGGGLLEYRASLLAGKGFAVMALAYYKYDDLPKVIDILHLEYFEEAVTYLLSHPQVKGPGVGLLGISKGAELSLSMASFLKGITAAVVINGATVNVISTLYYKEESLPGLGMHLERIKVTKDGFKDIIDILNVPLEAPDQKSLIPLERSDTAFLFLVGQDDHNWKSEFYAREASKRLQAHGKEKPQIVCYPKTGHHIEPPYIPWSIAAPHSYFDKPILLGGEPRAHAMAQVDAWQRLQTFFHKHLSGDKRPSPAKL

[4] = target: T4, ACOT4 peroxisomal acyl-CoA thioesterase 4 (Mus musculus, UniProt Q8BWN8); details: at concentrations up to 500 μM; cited from earlier work
T4 construct: His tag; host or cells: E. coli
T4 sequence (Q8BWN8 1-421): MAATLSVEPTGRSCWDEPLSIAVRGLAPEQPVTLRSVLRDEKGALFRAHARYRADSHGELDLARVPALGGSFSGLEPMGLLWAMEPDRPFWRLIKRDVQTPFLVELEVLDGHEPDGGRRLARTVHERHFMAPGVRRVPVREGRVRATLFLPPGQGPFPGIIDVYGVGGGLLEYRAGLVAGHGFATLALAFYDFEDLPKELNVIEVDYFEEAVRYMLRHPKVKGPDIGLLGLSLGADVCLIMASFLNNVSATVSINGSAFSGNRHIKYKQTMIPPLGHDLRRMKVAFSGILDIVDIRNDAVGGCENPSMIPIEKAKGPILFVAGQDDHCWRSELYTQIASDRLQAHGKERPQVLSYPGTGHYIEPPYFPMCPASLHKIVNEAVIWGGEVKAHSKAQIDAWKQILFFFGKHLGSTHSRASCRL

ACOT3 (formerly PTE-1a) = target: T5, ACOT3 (formerly PTE-1a) (Mus musculus, UniProt Q9QYR7); details: cited from earlier work
T5 construct: His tag; host or cells: E. coli
T5 sequence (Q9QYR7 1-432): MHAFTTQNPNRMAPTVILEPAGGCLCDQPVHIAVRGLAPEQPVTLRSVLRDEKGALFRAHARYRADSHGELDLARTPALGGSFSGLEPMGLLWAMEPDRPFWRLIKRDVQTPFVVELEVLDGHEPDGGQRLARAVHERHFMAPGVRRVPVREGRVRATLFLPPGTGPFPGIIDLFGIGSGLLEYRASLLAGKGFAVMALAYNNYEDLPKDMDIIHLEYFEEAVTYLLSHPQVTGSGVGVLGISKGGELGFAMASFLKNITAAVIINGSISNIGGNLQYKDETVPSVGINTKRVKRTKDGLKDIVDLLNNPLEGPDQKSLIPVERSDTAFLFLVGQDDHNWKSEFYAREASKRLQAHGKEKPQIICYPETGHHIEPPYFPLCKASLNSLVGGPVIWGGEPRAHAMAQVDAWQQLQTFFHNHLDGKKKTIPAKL

[5] = target: T6, Aminoadipate aminotransferase (Q64602) (Bos taurus, UniProt Q5E9N4); details: cited from earlier work
T6 construct: host or cells: bovine kidney

[6] = target: T7, Nocardia sp. carboxylic acid reductase (CAR) (Nocardia iowensis, UniProt Q6RKB1); experiment: Carboxylic acid reductase (CAR) spectrophotometric assay of NADPH consumption; format: biochemical
T7 construct: made in house; host or cells: E. coli BL21, cell-free extract
Description: The conditions for the assay were taken from Applied and Environmental Microbiology 2004, 70, p 1874-1881.

[7] = tested on: PauA pimeloyl-CoA ligase (EC 6.2.1.14); details: substrate of pauA; pimelate = 100%; cited from earlier work
[8] = target: T8, Haemophilus influenzae YciA thioesterase (Haemophilus influenzae, UniProt P44886); experiment: Biotransformation of pimeloyl-CoA to pimelic acid with YciA thioesterase cell free extract; format: biochemical; details: 1 mM substrate, ~15 g/L whole cell equivalents, pH 7.5, 20° C., after 1 hour
T8 construct: made in house; host or cells: E. coli BL21 (DE3), cell-free extract
Protocol: Biotransformations were carried out in a final volume of 2 mL. The biotransformations comprised of 1 mM substrate, 200 mM KCl and 50 mM potassium Hepes (pH 7.5). Negative controls comprised of cells harbouring the empty vector The biocatalyst was charged as a cell free extract to give a final concentration of ˜15 g/L whole cell equivalents. The reactions were carried out at ambient temperature (20° C.) in 15 mL falcon tubes with stirring. Each biotransformation was sampled after 1 h, 4 h and 24 h and analysed by HPLC (Agilent 1100) on a Phenomenex Luna C18 250×4.6 mm, 5 micron column. […] The filtrates were analysed by HPLC at 260 nm for the disappearance of pimeloyl-CoA (Rt 12.39 mins) and the formation of CoA (Rt 7.98 minutes), both which absorbs strongly at this wavelength, while pimlic acid was not detectable by UV at 260 nm. Pimelic acid formation was confirmed by LC-MS.

T7 sequence (Q6RKB1 2-1174): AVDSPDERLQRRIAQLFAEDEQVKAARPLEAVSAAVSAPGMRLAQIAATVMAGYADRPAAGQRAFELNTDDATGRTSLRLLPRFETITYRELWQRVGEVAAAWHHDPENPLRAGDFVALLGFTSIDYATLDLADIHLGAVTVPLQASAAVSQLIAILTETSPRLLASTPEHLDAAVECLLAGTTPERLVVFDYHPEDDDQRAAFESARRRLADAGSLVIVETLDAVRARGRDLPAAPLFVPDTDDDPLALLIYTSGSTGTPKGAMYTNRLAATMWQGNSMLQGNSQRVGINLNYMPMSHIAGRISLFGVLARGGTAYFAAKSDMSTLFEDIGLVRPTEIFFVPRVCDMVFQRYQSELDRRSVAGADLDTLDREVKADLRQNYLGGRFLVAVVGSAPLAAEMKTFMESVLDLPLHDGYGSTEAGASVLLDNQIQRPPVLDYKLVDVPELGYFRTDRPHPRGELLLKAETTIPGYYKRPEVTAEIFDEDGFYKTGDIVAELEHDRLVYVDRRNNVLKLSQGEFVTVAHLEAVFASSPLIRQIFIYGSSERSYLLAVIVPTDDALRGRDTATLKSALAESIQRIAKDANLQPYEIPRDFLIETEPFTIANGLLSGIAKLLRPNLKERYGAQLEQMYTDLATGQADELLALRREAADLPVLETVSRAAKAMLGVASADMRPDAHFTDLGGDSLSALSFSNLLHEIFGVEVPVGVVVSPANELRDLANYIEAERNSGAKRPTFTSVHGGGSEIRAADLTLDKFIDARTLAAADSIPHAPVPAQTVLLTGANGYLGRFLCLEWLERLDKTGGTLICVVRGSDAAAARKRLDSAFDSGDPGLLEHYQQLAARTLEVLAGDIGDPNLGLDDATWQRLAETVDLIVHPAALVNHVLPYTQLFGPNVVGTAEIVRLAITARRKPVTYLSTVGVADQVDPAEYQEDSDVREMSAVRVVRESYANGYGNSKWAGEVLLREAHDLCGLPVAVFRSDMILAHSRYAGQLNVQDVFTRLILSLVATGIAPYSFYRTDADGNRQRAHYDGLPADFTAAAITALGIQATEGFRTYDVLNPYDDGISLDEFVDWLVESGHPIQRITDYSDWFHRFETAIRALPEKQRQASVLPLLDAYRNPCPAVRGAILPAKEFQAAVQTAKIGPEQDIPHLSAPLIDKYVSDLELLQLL
T1 sequence (O66145 whole entry): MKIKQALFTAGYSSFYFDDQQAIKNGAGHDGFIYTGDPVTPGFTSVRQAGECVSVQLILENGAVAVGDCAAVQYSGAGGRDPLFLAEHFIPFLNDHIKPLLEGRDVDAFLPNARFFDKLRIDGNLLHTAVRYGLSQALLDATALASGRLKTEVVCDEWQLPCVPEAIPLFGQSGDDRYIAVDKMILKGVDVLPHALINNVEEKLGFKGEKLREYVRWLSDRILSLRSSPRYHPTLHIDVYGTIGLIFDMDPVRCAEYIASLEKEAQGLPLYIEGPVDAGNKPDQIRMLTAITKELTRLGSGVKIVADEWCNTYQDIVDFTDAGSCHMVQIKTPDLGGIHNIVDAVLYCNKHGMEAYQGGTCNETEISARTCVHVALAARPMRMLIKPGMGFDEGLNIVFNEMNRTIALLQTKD
T8 sequence (P44886 whole entry): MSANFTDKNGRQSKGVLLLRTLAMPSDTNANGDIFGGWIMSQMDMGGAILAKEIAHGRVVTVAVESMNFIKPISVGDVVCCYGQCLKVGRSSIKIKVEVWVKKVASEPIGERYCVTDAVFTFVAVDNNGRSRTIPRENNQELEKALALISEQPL
T6 sequence (Q5E9N4 30-425, one chain of several): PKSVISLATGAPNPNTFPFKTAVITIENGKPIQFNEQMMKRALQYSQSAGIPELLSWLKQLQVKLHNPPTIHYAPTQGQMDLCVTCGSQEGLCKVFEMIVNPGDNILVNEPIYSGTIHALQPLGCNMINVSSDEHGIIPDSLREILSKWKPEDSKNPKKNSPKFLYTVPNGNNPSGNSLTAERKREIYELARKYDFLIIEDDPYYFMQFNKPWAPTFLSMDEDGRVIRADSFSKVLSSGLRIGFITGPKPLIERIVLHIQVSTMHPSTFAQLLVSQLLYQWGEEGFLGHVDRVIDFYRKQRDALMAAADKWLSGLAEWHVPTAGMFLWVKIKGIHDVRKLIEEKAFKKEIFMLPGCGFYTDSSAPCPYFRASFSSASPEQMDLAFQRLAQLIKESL
T2 sequence (Q05514 whole entry): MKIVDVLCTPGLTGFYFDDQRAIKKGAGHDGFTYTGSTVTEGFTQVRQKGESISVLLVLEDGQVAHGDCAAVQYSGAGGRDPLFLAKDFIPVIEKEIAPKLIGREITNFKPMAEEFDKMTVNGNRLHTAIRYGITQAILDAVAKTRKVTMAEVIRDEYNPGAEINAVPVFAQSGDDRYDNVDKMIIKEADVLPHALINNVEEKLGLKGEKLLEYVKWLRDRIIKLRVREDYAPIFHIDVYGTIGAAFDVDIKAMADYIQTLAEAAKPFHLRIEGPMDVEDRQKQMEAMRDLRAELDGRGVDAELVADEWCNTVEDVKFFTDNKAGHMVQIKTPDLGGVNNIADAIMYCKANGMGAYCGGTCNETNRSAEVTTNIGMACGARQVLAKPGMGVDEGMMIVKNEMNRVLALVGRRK

SMILES: C[C@H](C(=O)O)[C@@H](N)C(=O)O (racemic) [DL-threo-beta methyl aspartate]
- lyase activity (mesaconic acid formation) [1]: No activity
- conversion to mesaconic acid [2]: complete conversion
- conversion to mesaconic acid [3]: complete conversion

SMILES: CC(C)(COP(=O)(O)OP(=O)(O)OC[C@H]1O[C@@H](n2cnc3c(N)ncnc32)[C@H](O)[C@@H]1OP(=O)(O)O)[C@@H](O)C(=O)NCCC(=O)NCCS [CoASH]
- inhibition with free CoASH (ACOT5 (formerly PTE-1c)): no inhibition
- inhibition of the reaction by CoASH [4]: not inhibited
- inhibition with free CoASH (ACOT3 (formerly PTE-1a)): no inhibition

SMILES: O=C(O)CCCCCC(=O)O [Pimelic acid]
- reduction in activity in the presence of pimelic acid [5]: 30%
- NADPH consumption (uncorrected) ([6]; 50 mM substrate, rCAR cell free extract 4.3 g/L whole cell equivalents, pH 7.5, ~20 deg C, change in absorbance over time): −0.00096
- NADPH consumption (corrected for background) ([6]; as uncorrected, corrected with negative control (BL21 empty vector) rate): −0.00103
- activity relative to the activity for benzoic acid ([6]; reduction to pimelic acid semialdehyde): > 100%
- relative activity [7]: 100%

SMILES: CC(C)(COP(=O)(O)OP(=O)(O)OC[C@H]1O[C@@H](n2cnc3c(N)ncnc32)[C@H](O)[C@@H]1OP(=O)(O)O)[C@@H](O)C(=O)NCCC(=O)NCCSC(=O)CCCCCC(=O)O [pimeloyl-CoA]
- hydrolysis to pimelic acid [8]: Complete hydrolysis
